Data on five compounds can be found in article PMC4519256, “Expanding the Described Metabolome of the Marine Cyanobacterium Moorea producens JHB through Orthogonal Natural Products Workflows” (PLoS ONE, 2015).

Experiment [1] relates to human carcinoma of the nasopharynx (KB) cell line. Details: method as in PMID 15974628. Conditions: cited from earlier work.
Experiment [2] deals with human small cell lung cancer (NCI-H187) cell line. Details: method as in PMID 15974628. As to conditions: cited from earlier work.
For the next experiment, the system named is actin. More on the design: method as in PMID 12088429. As to conditions: cited from earlier work.
The subject of experiment [3] is veratridine-stimulated Ca2+ influx in neocortical neurons. Briefly: Antagonism of veratridine-stimulated Ca2+ influx in neocortical neurons (fluo-3). The class given is cell-based, Swiss-Webster mice. Conditions: for IC50: Neuron, primary mouse neocortical neurons, three-parameter logistic fit. Here is the method: (§1) Primary cultures of neocortical neurons were obtained from embryonic day 16 Swiss-Webster mice as described elsewhere. Briefly, pregnant mice were euthanized by CO2 asphyxiation and embryos were removed under sterile conditions. Neocortices were collected, stripped of meninges, minced by trituration with a Pasteur pipette, and treated with trypsin for 25 min at 37°C. The cells were then dissociated by two successive trituration and sedimentation steps in soybean trypsin inhibitor and DNase containing isolation buffer, centrifuged, and resuspended in Eagle’s minimal essential medium with Earle’s salt (MEM) and supplemented with 1 mM L-glutamine, 10% fetal bovine serum, 10% horse serum, 100 IU/mL penicillin, and 0.10 mg/mL streptomycin (pH 7.4). Cells were plated onto poly-L-lysine-coated 96-well (9 mm), clear-bottomed, black-well culture plates (MidSci, St. Louis, USA) at a density of 1.5 × 10^5 cells/well. Cells were then incubated at 37°C in a 5% CO2 and 95% humidity atmosphere. The culture media was changed every other day, starting from day 5 in-vitro using a serum-free growth medium containing Neurobasal Medium supplemented with B-27, 100 IU/mL penicillin, 0.10 mg/mL streptomycin, and 0.2 mM L-glutamine. Neocortical cultures were used in experiments between 10–11 days in-vitro. All animal use protocols were approved by the Institutional Animal Care and Use Committee (IACUC) of Creighton University.
Cells grown in 96-well plates were used for determination of intracellular Ca^2+ concentration ([Ca^2+]i). Briefly, the growth medium was removed and replaced with dye-loading medium (100 μL per well) containing 4 μM fluo-3 AM and 0.04% pluronic acid in Locke's buffer. […] The cells were incubated in the presence or absence of jamaicamides for 5–7 minutes at 37°C in a 5% CO2 and 95% humidity atmosphere prior to transfer to a FLEX Station II (Molecular Devices) benchtop scanning fluorescence chamber. The fluorescence measurements were performed at 37°C. The cells were excited at 488 nm and Ca^2+-bound fluo-3 emission was recorded at 538 nm at 2 s intervals. After recording baseline fluorescence for 60 s, either vehicle or veratridine was added to each well at a rate of 26 μL/s; the fluorescence was then monitored for an additional 200 s.
(§2) The Fluo-3 and SBFI raw fluorescence emission data were exported to an Excel work sheet. The Fluo-3 fluorescence or SBFI fluorescence ratios (340/380) versus time were analyzed and concentration-response graphs generated using GraphPad Prism software (GraphPad Software Inc., San Diego, CA).

Experiment [4] concerns voltage-gated sodium channels. Kind of experiment: Antagonism of veratridine-stimulated Na+ influx in neocortical neurons (SBFI). The class given is cell-based, Swiss-Webster mice. Conditions: for IC50: primary mouse neocortical neurons, three-parameter logistic fit. The procedure: as §1
[Na^+]i measurement and full in-situ calibration of sodium-binding benzofuran isophthalate (SBFI) fluorescence ratio were performed as described previously. Cells grown in 96-well plates were washed four times with Locke's buffer using an automated microplate washer (BioTek Instruments, Winooski, VT). After measuring the background fluorescence of each well, cells were incubated for 1 h at 37°C with dye-loading buffer (100 μL/well) containing 10 μM SBFI-AM (Invitrogen) and 0.02% Pluronic F-127 (Invitrogen). Cells were washed five times with Locke's buffer, leaving a final volume of 150 μL in each well. Jamaicamide addition and preincubation was as described above for Ca^2+ concentration determination. […] Fluorescence readings were taken once every 5 s for 60 s to establish the baseline, then either vehicle (control) or veratridine was added and fluorescence was monitored for an additional 260 s. After correcting for background fluorescence, SBFI fluorescence ratios (340/380) and concentration-response graphs were generated.
as §2

The subject of a further experiment is sodium channel. As to conditions: at a concentration of 5 μM, Neuro-2a cells; cited from earlier work.

Turning to `CC(=O)O[C@@H]1c2nc(cs2)C(=O)O[C@@H](CCCC(C)(Cl)Cl)[C@H](C)C(=O)O[C@@H](C(C)(C)O)c2nc(cs2)C(=O)OC1(C)C` [compound 1, hectochlorin], the values for the LD50 in experiment [1] and in experiment [2] were 0.86 µM and 1.20 µM, respectively. The “Effect on actin polymerization” value in the experiment on actin is on record as “enhances actin polymerization”.
As to `CO/C(=C/C(=O)N1C(=O)C=C[C@@H]1C)CCNC(=O)CC/C=C/C(C)CC/C(=C/Cl)CCCC#CBr` (stereo partly drawn) [compound 2, jamaicamide A], the IC50 (usually the concentration at which inhibition is half-maximal) in experiment [3] was determined as 1.82 µM; in experiment [4], 1.1 µM. Further, the “Potency relative to the other two jamaicamides tested (Ca2+ influx)” value in experiment [3] (versus 3 and 12) was 2–3 times. Further, the “Potency relative to the other two jamaicamides as a sodium channel blocker (Na+ influx)” value in experiment [4] (versus 3 and 12, neocortical neurons) is listed as 2-3 times. For the same compound, the “Sodium channel blocking activity” value in the experiment with sodium channel is “sodium channel blocking activity”.
For `C#CCCC/C(=C\Cl)CCC(C)/C=C/CCC(=O)NCC/C(=C\C(=O)N1C(=O)C=C[C@@H]1C)OC` (stereo partly drawn) [compound 3, jamaicamide B], the IC50 came out at 6.88 µM in experiment [3] and 3.6 µM in experiment [4]. Further, the “Sodium channel blocking activity” value in the experiment with sodium channel is given as “sodium channel blocking activity”.
On to `CC1C(=O)OC(C(C)(C)O)c2nc(cs2)C(=O)OC(C)(C)C(O)c2nc(cs2)C(=O)OC1CCCC(C)(Cl)Cl` (stereo not drawn) [compound 5, Hectochlorin B], for which the LD50 in experiment [1] is 0.31 µM; in experiment [2] it was 0.32 µM.
Take `COC(=CC(=O)N1C(=O)C=CC1C)CCNC(=O)CCC=CC(C)CCC(=CCl)CCCC#CI` (stereo not drawn) [compound 12, jamaicamide F]: the IC50 was 4.3 µM in experiment [3] and 2.3 µM in experiment [4].
